Source: patent publication US10323038B2, “Pyrazole compounds and methods of making and using same” (ABIDE THERAPEUTICS, INC., priority 2015, dated 2019)
pIC50: −log10 of the molar value.

Columns and labels:
MAGL = MAGL (Mus musculus (Mouse), UniProt O35678); experiment: In vitro competitive activity-based protein profiling, MAGL (mouse); type: biochemical; conditions: for inhibition at 1 µM: read-out: MAGL % inh. 1 μM (mouse)
How it was run: (§1)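 Mouse brain membrane fraction or cell lysates (mouse assays) and human prefrontal cortex or cell membrane fractions (human assays), 1.0 mg/mL protein, were preincubated with varying inhibitor concentrations for 30 min at 37° C. FP-Rh or HT-01 probe (50 μM stock in DMSO) was then added for another 30 min at 37° C.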

FAAH = FAAH (Mus musculus (Mouse), UniProt O08914); experiment: In vitro competitive activity-based protein profiling, FAAH (mouse); type: biochemical; conditions: for inhibition at 1 µM: read-out: FAAH % inh. 1 μM (mouse)
How it was run: as §1

Sequence of MAGL (O35678 whole entry): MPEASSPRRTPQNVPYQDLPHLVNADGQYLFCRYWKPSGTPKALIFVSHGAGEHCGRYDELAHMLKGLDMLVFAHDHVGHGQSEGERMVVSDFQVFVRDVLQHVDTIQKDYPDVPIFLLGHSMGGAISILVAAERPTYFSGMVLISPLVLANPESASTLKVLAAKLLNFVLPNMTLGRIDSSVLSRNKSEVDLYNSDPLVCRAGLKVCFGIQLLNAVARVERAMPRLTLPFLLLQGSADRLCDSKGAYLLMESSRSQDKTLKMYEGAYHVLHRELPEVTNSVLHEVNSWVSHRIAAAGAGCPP
Sequence of FAAH (O08914 whole entry): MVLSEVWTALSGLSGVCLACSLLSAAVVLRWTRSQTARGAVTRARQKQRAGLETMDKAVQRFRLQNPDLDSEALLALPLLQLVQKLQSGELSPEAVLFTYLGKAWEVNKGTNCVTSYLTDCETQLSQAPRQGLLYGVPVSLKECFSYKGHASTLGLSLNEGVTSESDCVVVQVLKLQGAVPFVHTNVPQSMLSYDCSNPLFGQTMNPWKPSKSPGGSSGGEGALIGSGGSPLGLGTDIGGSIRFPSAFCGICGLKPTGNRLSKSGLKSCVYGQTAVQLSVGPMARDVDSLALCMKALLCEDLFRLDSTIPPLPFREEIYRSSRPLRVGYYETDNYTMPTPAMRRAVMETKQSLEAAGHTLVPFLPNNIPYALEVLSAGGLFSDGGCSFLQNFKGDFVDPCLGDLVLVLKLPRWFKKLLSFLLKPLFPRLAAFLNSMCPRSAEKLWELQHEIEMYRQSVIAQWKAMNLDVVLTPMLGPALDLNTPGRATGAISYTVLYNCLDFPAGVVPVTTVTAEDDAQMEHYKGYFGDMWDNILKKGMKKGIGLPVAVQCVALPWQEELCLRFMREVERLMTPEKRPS

Row | Compound | inhibition at 1 µM (MAGL; 1 μM) | inhibition at 1 µM (FAAH; 1 μM) | pIC50 (MAGL) | pIC50 (FAAH) | MAGL % inh. 1 μM (mouse) (MAGL; 1 μM) | FAAH % inh. 1 μM (mouse) (FAAH; 1 μM)
1 | CS(=O)(=O)Nc1cnn(C(=O)N2CCN(Cc3ccc(-c4ccccc4)cc3OCc3ccccc3)CC2)c1 [Example 224, N-(1-(4-((3-(benzyloxy)-[1,1′-biphenyl]-4-yl)methyl)piperazine-1-carbonyl)-1H-pyrazol-4-yl)methanesulfonamide] | ≥ 75% | 50 to 75% | – | – | – | –
2 | CC(=O)N(C)c1cnn(C(=O)N2CCC3(CC2)CN(Cc2ccc(-c4ccccc4)cc2C)C3)c1 [Example 226, N-methyl-N-(1-(2-((3-methyl-[1,1-biphenyl]-4-yl)methyl)-2,7-diazaspiro[3.5]nonane-7-carbonyl)-1H-pyrazol-4-yl)acetamide] | ≥ 75% | ≥ 75% | ≥ 7.00 | 6.00 to 7.00 | – | –
3 | CC(=O)Nc1cnn(C(=O)N2CCN(Cc3cc(N4CCCC4)cc(C(F)(F)F)c3)CC2)c1 [Example 227] | – | – | 6.00 to 7.00 | 6.00 to 7.00 | A (A = % inhibition greater than or equal to 75%) | B (B = % inhibition greater than or equal to 50% and less than 75%)
4 | CC(=O)Nc1cnn(C(=O)N2CCN(Cc3ccc(C(F)(F)F)cc3N3C4CCC3COC4)CC2)c1 [Example 228, N-(1-(4-(2-(3-oxa-8-azabicyclo[3.2.1]octan-8-yl)-4-(trifluoromethyl)benzyl)piperazine-1-carbonyl)-1H-pyrazol-4-yl)acetamide] | ≥ 75% | 0 to 25% | 6.00 to 7.00 | 5.00 to 6.00 | – | –
5 | CC(=O)N(C)c1cnn(C(=O)N2CC3(CCN(Cc4cccc(Oc5ccccc5)c4)CC3)C2)c1 [Example 229, N-methyl-N-(1-(7-(3-phenoxybenzyl)-2,7-diazaspiro[3.5]nonane-2-carbonyl)-1H-pyrazol-4-yl)acetamide] | 50 to 75% | ≥ 75% | 5.00 to 6.00 | ≥ 7.00 | – | –
6 | CC(=O)N(C)c1cnn(C(=O)N2CC3(CCN(Cc4ccc(CN5CCOCC5)cc4)CC3)C2)c1 [Example 230, N-methyl-N-(1-(7-(4-(morpholinomethyl)benzyl)-2,7-diazaspiro[3.5]nonane-2-carbonyl)-1H-pyrazol-4-yl)acetamide] | 25 to 50% | 0 to 25% | – | – | – | –
7 | CC(=O)N(C)c1cnn(C(=O)N2CCC3(CCN(Cc4ccc(-c5ccccc5)cc4C)C3)C2)c1 (stereo not shown) [Example 232, N-methyl-N-(1-(7-((3-methyl-[1,1′-biphenyl]-4-yl)methyl)-2,7-diazaspiro[4.4]nonane-2-carbonyl)-1H-pyrazol-4-yl)acetamide] | ≥ 75% | ≥ 75% | ≥ 7.00 | ≥ 7.00 | – | –
8 | CC(=O)N(C)c1cnn(C(=O)N2CCC3(CC2)CN(Cc2ccc(CN4CCOCC4)cc2)C3)c1 [Example 233, N-methyl-N-(1-(2-(4-(morpholinomethyl)benzyl)-2,7-diazaspiro[3.5]nonane-7-carbonyl)-1H-pyrazol-4-yl)acetamide] | 50 to 75% | 0 to 25% | – | – | – | –
9 | CC(=O)N(C)c1cnn(C(=O)N2CC3CN(Cc4cccc(Oc5ccccc5)c4)CC3C2)c1 (stereo not shown) [Example 234, N-methyl-N-(1-(5-(3-phenoxybenzyl)octahydropyrrolo[3,4-c]pyrrole-2-carbonyl)-1H-pyrazol-4-yl)acetamide] | ≥ 75% | ≥ 75% | ≥ 7.00 | ≥ 7.00 | – | –
10 | CC(=O)N(C)c1cnn(C(=O)N2CCC3(CC2)CN(Cc2cccc(Oc4ccccc4)c2)C3)c1 [Example 235, N-methyl-N-(1-(2-(3-phenoxybenzyl)-2,7-diazaspiro[3.5]nonane-7-carbonyl)-1H-pyrazol-4-yl)acetamide] | ≥ 75% | ≥ 75% | ≥ 7.00 | ≥ 7.00 | – | –
11 | CC(=O)N(C)c1cnn(C(=O)N2CC3CN(Cc4cccc(Oc5ccc(Cl)cc5)c4)CC3C2)c1 (stereo not shown) [Example 237, N-(1-(5-(3-(4-chlorophenoxy)benzyl)octahydropyrrolo [3,4-c]pyrrole-2-carbonyl)-1H-pyrazol-4-yl)-N-methylacetamide] | ≥ 75% | ≥ 75% | ≥ 7.00 | ≥ 7.00 | – | –
12 | CC(=O)N(C)c1cnn(C(=O)N2CC3CN(Cc4cccc(Oc5ccccn5)c4)CC3C2)c1 (stereo not shown) [Example 238, N-methyl-N-(1-(5-(3-(pyridin-2-yloxy)benzyl)octahydropyrrolo[3,4-c]pyrrole-2-carbonyl)-1H-pyrazol-4-yl)acetamide] | ≥ 75% | ≥ 75% | 6.00 to 7.00 | – | – | –
13 | CC(=O)N(C)c1cnn(C(=O)N2CC3CN(Cc4cccc(OCc5ccccc5)c4)CC3C2)c1 (stereo not shown) [Example 239, N-(1-(5-(3-(benzyloxy)benzyl)octahydropyrrolo[3,4-c]pyrrole-2-carbonyl)-1H-pyrazol-4-yl)-N-methylacetamide] | ≥ 75% | ≥ 75% | ≥ 7.00 | ≥ 7.00 | – | –
14 | CC(=O)N(C)c1cnn(C(=O)N2CC3CN(Cc4cccc(Oc5ccccc5Cl)c4)CC3C2)c1 (stereo not shown) [Example 240, N-(1-(5-(3-(2-chlorophenoxy)benzyl)octahydropyrrolo [3,4-c]pyrrole-2-carbonyl)-1H-pyrazol-4-yl)-N-methylacetamide] | ≥ 75% | ≥ 75% | ≥ 7.00 | ≥ 7.00 | – | –
15 | CC(=O)N(C)c1cnn(C(=O)N2CC3CN(Cc4ccc(Oc5ccccc5)cc4)CC3C2)c1 (stereo not shown) [Example 241, N-methyl-N-(1-(5-(4-phenoxybenzyl)octahydropyrrolo[3,4-c]pyrrole-2-carbonyl)-1H-pyrazol-4-yl)acetamide] | ≥ 75% | ≥ 75% | ≥ 7.00 | ≥ 7.00 | – | –
16 | CC(=O)N(C)c1cnn(C(=O)N2CC3CN(Cc4ccc5c(c4)OC(F)(F)O5)CC3C2)c1 (stereo not shown) [Example 242, N-(1-(5-((2,2-difluorobenzo[d][1,3]dioxol-5-yl)methyl)octahydropyrrolo[3,4-c]pyrrole-2-carbonyl)-1H-pyrazol-4-yl)-N-methylacetamide] | ≥ 75% | ≥ 75% | ≥ 7.00 | ≥ 7.00 | – | –
17 | CC(=O)N(C)c1cnn(C(=O)N2CC3CN(Cc4cccc(Oc5cccc(Cl)c5)c4)CC3C2)c1 (stereo not shown) [Example 244, N-(1-(5-(3-(3-chlorophenoxy)benzyl)octahydropyrrolo [3,4-c]pyrrole-2-carbonyl)-1H-pyrazol-4-yl)-N-methylacetamide] | ≥ 75% | ≥ 75% | ≥ 7.00 | ≥ 7.00 | – | –
18 | CC(=O)N(C)c1cnn(C(=O)N2CC3CN(Cc4ccc(Oc5ccc(Cl)cc5)cc4)CC3C2)c1 (stereo not shown) [Example 245, N-(1-(5-(4-(4-chlorophenoxy)benzyl)octahydropyrrolo [3,4-c]pyrrole-2-carbonyl)-1H-pyrazol-4-yl)-N-methylacetamide] | ≥ 75% | ≥ 75% | ≥ 7.00 | ≥ 7.00 | – | –
19 | CC(=O)N(C)c1cnn(C(=O)N2CC3CN(Cc4cc(F)c(F)cc4F)CC3C2)c1 (stereo not shown) [Example 246, N-methyl-N-(1-(5-(2,4,5-trifluorobenzyl)octahydropyrrolo[3,4-c]pyrrole-2-carbonyl)-1H-pyrazol-4-yl)acetamide] | ≥ 75% | ≥ 75% | 6.00 to 7.00 | ≥ 7.00 | – | –
20 | CC(=O)N(C)c1cnn(C(=O)N2CC3CN(Cc4cc(Cl)cc(N5CCC6(CCOCC6)C5)c4)CC3C2)c1 (stereo not shown) [Example 247, N-(1-(5-(3-chloro-5-(8-oxa-2-azaspiro[4.5]decan-2-yl)benzyl)octahydropyrrolo[3,4-c]pyrrole-2-carbonyl)-1H-pyrazol-4-yl)-N-methylacetamide] | ≥ 75% | ≥ 75% | – | – | – | –
21 | CC(=O)N(C)c1cnn(C(=O)N2CC3CN(Cc4ccc(OCc5ccccc5)cc4)CC3C2)c1 (stereo not shown) [Example 248, N-(1-(5-(4-(benzyloxy)benzyl)octahydropyrrolo[3,4-c]pyrrole-2-carbonyl)-1H-pyrazol-4-yl)-N-methylacetamide] | ≥ 75% | ≥ 75% | ≥ 7.00 | ≥ 7.00 | – | –
22 | CC(=O)N(C)c1cnn(C(=O)N2CC3CN(Cc4cccc(OCc5ccc(Cl)cc5)c4)CC3C2)c1 (stereo not shown) [Example 249, N-(1-(5-(3-((4-chlorobenzyl)oxy)benzyl)octahydropyrrolo[3,4-c]pyrrole-2-carbonyl)-1H-pyrazol-4-yl)-N-methylacetamide] | ≥ 75% | ≥ 75% | – | – | – | –
23 | CC(=O)N(C)c1cnn(C(=O)N2CC3CN(Cc4ccc(N5C[C@@H]6C[C@H]5CN6C)cc4C(F)(F)F)CC3C2)c1 (stereo partly drawn) [Example 250, N-methyl-N-(1-(5-(4-((1S,4S)-5-methyl-2,5-diazabicyclo[2.2.1]heptan-2-yl)-2-(trifluoromethyl)benzyl)octahydropyrrolo [3,4-c]pyrrole-2-carbonyl)-1H-pyrazol-4-yl)acetamide] | ≥ 75% | 50 to 75% | – | – | – | –
24 | CC(=O)N(C)c1cnn(C(=O)N2CC3CN(Cc4cc(Cl)cc(OCc5ccccc5)c4)CC3C2)c1 (stereo not shown) [Example 251, N-(1-(5-(3-(benzyloxy)-5-chlorobenzyl)octahydropyrrolo[3,4-c]pyrrole-2-carbonyl)-1H-pyrazol-4-yl)-N-methylacetamide] | ≥ 75% | ≥ 75% | ≥ 7.00 | ≥ 7.00 | – | –
25 | CC(=O)N(C)c1cnn(C(=O)N2CC3CN(Cc4ccc(Oc5nc6ccccc6s5)cc4Cl)CC3C2)c1 (stereo not shown) [Example 252, N-(1-(5-(4-(benzo[d]thiazol-2-yloxy)-2-chlorobenzyl)octahydropyrrolo[3,4-c]pyrrole-2-carbonyl)-1H-pyrazol-4-yl)-N-methylacetamide] | ≥ 75% | ≥ 75% | – | – | – | –
